Data taken from US7384933B2, “Derivatives of 2-hydroxytetrahydrofuran and their use as medicaments” (priority 2003, dated 2008).

Structure (SMILES) | melting point [°C]
COC1OCC[C@@H]1NC(=O)[C@H](CC(C)C)NC(=O)[C@H](CCCCNC(=O)OCc1ccccc1)NC(=O)c1ccc2c(c1)Nc1ccccc1S2 (some centres unmarked) | 102 to 103
COC1OCC[C@@H]1N(C(=O)[C@@H](NC(=O)COc1ccc2c(c1)Nc1ccccc1S2)c1ccccc1)C(=O)[C@@H](N)CC(C)C (some centres unmarked) | 215 to 217
CC[C@H](NC(=O)COc1ccc2c(c1)Nc1ccccc1S2)C(=O)N(C(=O)[C@@H](N)CC(C)C)[C@H]1CCOC1O (stereo partly drawn) [Example 48, N^1-[(3S)-2-hydroxytetrahydrofuran-3-yl]-N^1-((2S)-2-{[(10H-phenothiazin-2-yloxy)acetyl]amino}butanoyl)-L-leucinamide] | 160 to 161
COC1OCC[C@@H]1NC(=O)[C@H](CC(C)C)NC(=O)[C@@H](NC(=O)COc1ccc2c(c1)Nc1ccccc1S2)C(C)(C)C (some centres unmarked) | 152 to 153
COC1OCC[C@@H]1NC(=O)[C@H](CC(C)C)NC(=O)[C@@H](NC(=O)COc1ccc2c(c1)Nc1ccccc1S2)[C@@H](C)O (some centres unmarked) | 92 to 93
COC1OCC[C@@H]1NC(=O)[C@H](CC(C)C)NC(=O)[C@@H](NC(=O)COc1ccc2c(c1)Nc1ccccc1S2)C(C)C (some centres unmarked) | 240 to 241
COC1OCC[C@@H]1NC(=O)[C@H](CC(C)C)NC(=O)[C@H](CC(C)C)NC(=O)c1ccc2c(c1)Nc1ccccc1S2 (some centres unmarked) | 180 to 180.5
CC(C)CN(CC(=O)N[C@H]1CCOC1O)C(=O)CNC(=O)COc1ccc2c(c1)Nc1ccccc1S2 (some centres unmarked) | 122 to 124

Further lines, results first:

melting point [°C] | Structure (SMILES)
243 to 243.5 | COC1OCC[C@@H]1NC(=O)[C@H](CC(C)C)NC(=O)[C@@H]1CCCN1C(=O)c1ccc2c(c1)Nc1ccccc1S2 (some centres unmarked)
138 to 140 | CC(C)C[C@H](NC(=O)C(C)(C)NC(=O)COc1ccc2c(c1)Nc1ccccc1S2)C(=O)N[C@H]1CCOC1O (some centres unmarked) [Example 54]
144 to 144.5 | CC(C)C[C@H](NC(=O)c1ccc2c(c1)Nc1ccccc1S2)C(=O)N[C@@H](CC(C)C)C(=O)N[C@H]1CCOC1O (stereo partly drawn) [Example 8, N-(10H-phenothiazin-2-ylcarbonyl)leucyl-N^1-[(3S)-2-hydroxytetrahydrofuran-3-yl]-L-leucinamide]
141.5 to 142 | CC(C)C[C@H](NC(=O)COc1ccc2c(c1)Nc1ccccc1S2)C(=O)N[C@@H](CC(C)C)C(=O)N[C@H]1CCOC1O (stereo partly drawn) [Example 40, N-[(10H-phenothiazin-2-yloxy)acetyl]-L-leucyl-N^1-[(3S)-2-hydroxytetrahydrofuran-3-yl]-L-leucinamide]
128 to 130 | CC(C)C[C@H](NC(=O)[C@H](CO)NC(=O)COc1ccc2c(c1)Nc1ccccc1S2)C(=O)N[C@H]1CCOC1O (stereo partly drawn) [Example 50, N-[(10H-phenothiazin-2-yloxy)acetyl]-L-seryl-N^1-[(3S)-2-hydroxytetrahydrofuran-3-yl]-L-leucinamide]
144.5 to 145 | CC(C)C[C@H](NC(=O)[C@@H]1CCCN1C(=O)c1ccc2c(c1)Nc1ccccc1S2)C(=O)N[C@H]1CCOC1O (stereo partly drawn) [Example 10, 1-(10H-phenothiazin-2-ylcarbonyl)-L-prolyl-N^1-[(3S)-2-hydroxytetrahydrofuran-3-yl]-L-leucinamide]
